PMC7203153, “Rational identification and characterisation of peptide ligands for targeting polysialic acid” (Scientific Reports, 2020)
Marks after values point to notes of the source that are not given here. Where a SMILES comes first, the peptide text is derived from it.

assay: Fluorescence anisotropy (FA) assay of peptide–PSA binding; parameters: species or system Escherichia coli; details: FA titration; N-acetylated, C-terminally TAMRA-labelled peptide 20 nM; CA 0–1500 μM; PBS pH 7.4 (10 mM phosphate, 100 mM NaCl); 3 h, ~20 °C; four-parameter logistic fit; at least two independent experiments, at least triplicate; * = accuracy likely poor (SE > KD)
Protocol: Peptides (Table 2) were synthesized at >95% purity (confirmed with HPLC) by Biomatik (see Supplementary Information). All peptides were N-terminally acetylated and C-terminally labelled with tetramethylrhodamine dye (TAMRA). TAMRA was chosen as a label due to its pH insensitivity compared to FAM (fluorescein) and related dyes commonly used for fluorescence assays. Experiments were conducted in black 384-well plates with non-binding surface (NBS, Corning, Inc.) to minimize background binding and enhance signal-to-noise ratio in the fluorescence-based binding assay. Titrations were carried out through addition of TAMRA-labelled peptide (8 μL, final concentration 20 nM) to CA (72 μL, final concentrations 0–1500 μM) in PBS, pH 7.4 (10 mM phosphate, 100 mM NaCl), and solutions were incubated with agitation to equilibrium at room temperature (3 h, ~20 °C). Parallel and perpendicular intensities were subsequently measured at 530 nm excitation (band width 5 nm) and 580 nm emission (band width 20 nm) in fluorescence polarization mode with a Tecan Infinite M1000 Pro plate reader. Total fluorescence intensities were also measured as a control for fluorophore properties with target binding; fluorescence intensities of free peptide were determined to be approximately equivalent to intensities with peptide–CA mixtures. At higher concentrations of free CA (control with no peptide addition), attenuation of detected light differed in parallel and perpendicular planes, so respective intensities were subtracted from peptide–CA intensities prior to anisotropy calculations. […] Unique samples were screened in at least triplicate within each titration experiment, and each peptide titration was carried out at least twice. In experimental repeats, peptide locations on plates were varied to prevent location-specific effects, if any, and different combinations of peptides were assessed at once. Anisotropies were calculated from corrected parallel and perpendicular intensities, and values were fit to the four-parameter logistic binding model[70] in MATLAB. Prior to curve fitting, anisotropy values for each peptide were transformed through subtraction of minimum values to enhance comparison between peptides. The resulting translations in binding curves were identical, within error, to change in anisotropy curves obtained through subtraction of anisotropy of free labelled peptide. Bmax and KD values obtained were used in the calculation of Bmax/KD ratios for comparison to microarray intensity values, and the Pearson correlation coefficient (r) was determined.

Compound | Kd
CC(=O)N[C@@H](CC(N)=O)C(=O)N[C@@H](CCCNC(=N)N)C(=O)N[C@H](C(=O)N[C@H](C(=O)N[C@@H](CC(C)C)C(=O)N[C@@H](CCCNC(=N)N)C(=O)N[C@@H](CC(N)=O)C(=O)N[C@@H](CC(C)C)C(=O)NCC(=O)N[C@@H](CC(N)=O)C(=O)NCC(=O)N[C@H](C(=O)N[C@@H](CO)C(=O)N[C@@H](CC(C)C)C(=O)N1CCC[C@H]1C(N)=O)[C@@H](C)O)C(C)C)[C@@H](C)O [II-P336] (Ac-NRTVLRNLGNGTSLP-NH2) | 577 µM
CC[C@H](C)[C@H](NC(C)=O)C(=O)N[C@@H](Cc1ccc(O)cc1)C(=O)N1CCC[C@H]1C(=O)NCC(=O)N[C@@H](CO)C(=O)NCC(=O)N[C@@H](CC(N)=O)C(=O)N[C@H](C(=O)N[C@@H](CCCCN)C(=O)N[C@@H](Cc1ccc(O)cc1)C(=O)N[C@@H](CC(N)=O)C(=O)N[C@@H](CCC(=O)O)C(=O)N[C@@H](CCCCN)C(=O)N[C@@H](Cc1ccccc1)C(=O)N[C@@H](CCCCN)C(N)=O)[C@@H](C)O [II-P76] (Ac-IYPGSGNTKYNEKFK-NH2) | 1290 µM
CC(=O)N[C@@H](CCCCN)C(=O)N[C@@H](CC(=O)O)C(=O)N1CCC[C@H]1C(=O)N[C@@H](CO)C(=O)N[C@@H](Cc1ccc(O)cc1)C(=O)N[C@@H](CO)C(=O)N[C@@H](CC(C)C)C(=O)N[C@@H](CCC(N)=O)C(=O)N[C@H](C(=O)N[C@@H](CCC(N)=O)C(=O)N[C@@H](CCCNC(=N)N)C(=O)N[C@@H](CCC(N)=O)C(=O)N[C@H](C(=O)N1CCC[C@H]1C(=O)N[C@H](C(N)=O)C(C)C)C(C)C)C(C)C [I-P2] (Ac-KDPSYSLQVQRQVPV-NH2) | 405 µM

same assay, conditions: PSA concentration 1500 µM; ± inter-assay SD, at least two independent experiments; SD

Compound | Non-adjusted anisotropy
CC(=O)N[C@@H](CCCCN)C(=O)N[C@@H](CC(=O)O)C(=O)N1CCC[C@H]1C(=O)N[C@@H](CO)C(=O)N[C@@H](Cc1ccc(O)cc1)C(=O)N[C@@H](CO)C(=O)N[C@@H](CC(C)C)C(=O)N[C@@H](CCC(N)=O)C(=O)N[C@H](C(=O)N[C@@H](CCC(N)=O)C(=O)N[C@@H](CCCNC(=N)N)C(=O)N[C@@H](CCC(N)=O)C(=O)N[C@H](C(=O)N1CCC[C@H]1C(=O)N[C@H](C(N)=O)C(C)C)C(C)C)C(C)C [I-P2] (Ac-KDPSYSLQVQRQVPV-NH2) | 35.8 ± 11.5

same assay, conditions: from FA curve fits, among the peptides characterised with FA

Compound | Bmax/KD ratio (binding potential)
CC(=O)N[C@@H](CC(N)=O)C(=O)N[C@@H](CCCNC(=N)N)C(=O)N[C@H](C(=O)N[C@H](C(=O)N[C@@H](CC(C)C)C(=O)N[C@@H](CCCNC(=N)N)C(=O)N[C@@H](CC(N)=O)C(=O)N[C@@H](CC(C)C)C(=O)NCC(=O)N[C@@H](CC(N)=O)C(=O)NCC(=O)N[C@H](C(=O)N[C@@H](CO)C(=O)N[C@@H](CC(C)C)C(=O)N1CCC[C@H]1C(N)=O)[C@@H](C)O)C(C)C)[C@@H](C)O [II-P336] (Ac-NRTVLRNLGNGTSLP-NH2) | highest

assay: Peptide microarray affinity screening against α-2,8-PSA (colominic acid); format: binding, Escherichia coli; details: 10 μM CA, pH 7.4
Protocol: (§1) Peptide library synthesis, microarray preparation, and microarray screening were performed as described previously[25] with the following specifications. Siglec-related sequences were N-terminally acetylated to match the charge of the corresponding protein fragment. All peptides were printed in triplicate (60 nL spots), and each initial affinity screening was carried out at least three times. Screening was conducted with 10 μM colominic acid (CA; 5 mL per microarray), the Escherichia coli homolog of α-2,8-PSA identical in structure to human-derived PSA[67], and with antibody-based chemiluminescent detection of CA. For selectivity screening, microarrays were challenged with 10 μM CA with 0, 0.1, 1, and 10 μM α-2,8/9-PSA in separate conditions (5 mL total volume each), where molar concentrations were based on molecular weight estimation of synthesized 2,8/9-PSA (details on α-2,8/9-PSA production, purification, and analysis are provided in Supplementary Information). Selectivity screening with monomeric sialic acid was conducted with mass and molar equivalents of N-acetylneuraminic acid (Rose Scientific, Ltd.) along with 10 μM CA (5 mL total volume each). The mass equivalent amount of sialic acid (specifically, 970 μM sialic acid for a given volume of 10 μM CA) was calculated for CA of an average degree of polymerization of 100. For study of pH-dependent binding, affinity screening with CA was performed using PBS buffers of pH 6.0, 7.0, 7.4, and 8.0 (10 mM phosphate, 100 mM NaCl). The impact of NaCl on peptide binding was assessed at pH 7.4 with 0, 100, and 200 mM NaCl.
Microarray image and data analysis was performed as described. […] Of the triplicate experiments used to generate mean microarray affinity intensities in standard conditions (within each of which 762 peptides were represented in triplicate), 225 out of 762 values in one of these three experiments were derived from raw data previously reported, but were alternatively analysed as stated. Peptide isoelectric points were calculated with the EMBOSS iep program.

Compound | change in microarray binding with 200 mM vs 100 mM NaCl
CC(=O)N[C@@H](CCC(=O)O)C(=O)N[C@@H](Cc1c[nH]cn1)C(=O)NCC(=O)NCC(=O)NCC(=O)N[C@@H](CC(C)C)C(=O)NCC(=O)N[C@@H](CC(C)C)C(=O)NCC(=O)N[C@@H](C)C(=O)N[C@@H](C)C(=O)N[C@@H](CC(C)C)C(=O)NCC(=O)N[C@@H](C)C(=O)NCC(N)=O [I-P264] (Ac-EHGGGLGLGAALGAG-NH2) | did not display any change in binding
CC(=O)N[C@@H](CCCCN)C(=O)N[C@@H](CC(=O)O)C(=O)N1CCC[C@H]1C(=O)N[C@@H](CO)C(=O)N[C@@H](Cc1ccc(O)cc1)C(=O)N[C@@H](CO)C(=O)N[C@@H](CC(C)C)C(=O)N[C@@H](CCC(N)=O)C(=O)N[C@H](C(=O)N[C@@H](CCC(N)=O)C(=O)N[C@@H](CCCNC(=N)N)C(=O)N[C@@H](CCC(N)=O)C(=O)N[C@H](C(=O)N1CCC[C@H]1C(=O)N[C@H](C(N)=O)C(C)C)C(C)C)C(C)C [I-P2] (Ac-KDPSYSLQVQRQVPV-NH2) | did not display any change in binding

assay: Competitive microarray selectivity screening with α-2,8/9-PSA; format: binding, Escherichia coli; details: 10% competing α-2,8/9-PSA
Protocol: Competitive microarray screening with α-2,8/9-PSA was conducted in order to assess selective binding of peptides to α-2,8-PSA. The definition of percent selectivity at 10% competing glycan was applied to enable selectivity comparisons amongst a larger set of peptides[25] […] However, the use of an isomeric polymer is a more stringent assessment of selectivity; here, selective binding is guided by three-dimensional conformation and not additionally by differences in functional groups.
as §1, with “NaCl. […]” for “NaCl.”

Compound | selectivity mark in Table 1
CC(=O)N[C@@H](CC(N)=O)C(=O)N[C@@H](CCCNC(=N)N)C(=O)N[C@H](C(=O)N[C@H](C(=O)N[C@@H](CC(C)C)C(=O)N[C@@H](CCCNC(=N)N)C(=O)N[C@@H](CC(N)=O)C(=O)N[C@@H](CC(C)C)C(=O)NCC(=O)N[C@@H](CC(N)=O)C(=O)NCC(=O)N[C@H](C(=O)N[C@@H](CO)C(=O)N[C@@H](CC(C)C)C(=O)N1CCC[C@H]1C(N)=O)[C@@H](C)O)C(C)C)[C@@H](C)O [II-P336] (Ac-NRTVLRNLGNGTSLP-NH2) | II-P336* (Peptides with selectivity >80%)
AISSPLLKNPFRGGGS [II-P214, phage display screening peptide with W8K mutation] | II-P214* (Peptides with selectivity >80%)

same assay, conditions: binding to 10 μM α-2,8-PSA (CA) with 10% competing α-2,8/9-PSA; ± SD of triplicate intra-assay measurements; SD

Compound | % selectivity
QELHYASLSFQGLRL [I-P307] | 80 ± 14%
KGKGKGKGKGKGKGK [I-P378, de novo designed peptide with alternating Lys and Gly residues] | 60 ± 9%
GSGSGTDFTLKISRV [II-P35, peptide designed from mAb735] | 53 ± 6%
FRVKICRKEARKRAA [I-P278] | 43 ± 8%
AALSPRRTRPSTSHF [I-P85] | 59 ± 5%
GGKGGGKGGGKGGGK [I-P380, de novo peptide composed of lysine and glycine residues] | 56 ± 7%
AISSPLLRNPFRGGGS [II-P213, phage display screening peptide with W8R mutation] | 66 ± 9%
LKVTALTKKPDVYIP [I-P62] | 67 ± 17%
WFKGKTSPKTGAPVA [I-P333, Siglec-11-derived peptide with R5K mutation] | 59 ± 2%
KIHTGQPLRGPGFGL [I-P323] | 86 ± 8%
RKGVSAQRTVRLRVA [I-P104] | 45 ± 4%
GRTSPKAGAPVATNN [I-P346, Siglec-11-derived peptide with T7A mutation] | 91 ± 15%
YWFKGRTSPKTGAPV [I-P23] | 43 ± 3%
VDFSRKGVSAQRTVR [I-P102] | 59 ± 10%
NAFFLKVTALTKKPD [I-P60] | 70 ± 18%
VPYTFGGGTRLEIKG [II-P50, peptide designed from mAb735] | 71 ± 9%
WGPRTLGLELRGVRA [I-P143] | 37 ± 1%
VKICRKEARKRAAAE [I-P279] | 46 ± 12%
GRTSAKTGAPVATNN [I-P344, Siglec-11-derived peptide with P5A mutation] | 85 ± 8%
TLPAILQASGTRGGGS [II-P145, phage display screening peptide with S8A mutation] | 81 ± 16%
WFKGRTSPKTGAPVA [I-P330, Siglec-11-derived peptide] | 35 ± 1%
KGGGKGGGKGGGKGG [I-P379, de novo peptide composed of lysine and glycine residues] | 61 ± 7%
LSPRRTRPSTSHFSV [I-P86] | 62 ± 10%
YSEIKIHTGQPLRGP [I-P321] | 85 ± 18%
LSNAFFLKVTALTKK [I-P59] | 52 ± 10%
FSRKGVSAQRTVRLR [I-P103] | 55 ± 11%
PGSGNTKYNEKFKGK [II-P77, peptide designed from mAb735] | 49 ± 5%
